For data set [1] the following is noted: cited from earlier work; for m: dipole moment; for mp: dipole moment of non-solvent.
The conditions of data set [2]: cited from earlier work.
The nature of data set [3]: Hansen's method for solubility parameters and interaction distance r relative to polyaniline base. The note with it: for r: Table 5, interaction distance to polyaniline base (17.4, 8.5, 10.4).
Excerpt: When multiple literature source were found with widely differing values, those sets of values were taken which were the closest to those theoretically predicted for the given solvent.
Data set [4] is described as follows: Solvent test with undoped (neutralized) polyaniline (Example 8). It is filed as physicochemical. The note with it: polyaniline synthesized as in Example 1, undoped with aqueous sodium carbonate. The procedure: A series of potential solvents with significant polar and hydrogen bonding contributions were tested with polyaniline which had been synthesized as in Example 1 and then undoped (neutralized) by treatment with an aqueous solution of sodium carbonate.

Where [5] appears, read: Table 5, Hansen parameter of the liquid.
The mark [6] stands for this setting: Table 4, Hildebrand (solubility) parameter.
The mark [7] stands for this setting: Table 6, second half, Hansen parameter of non-solvent.
[8] abbreviates: Table 6, Hansen parameter of non-solvent.
Setting [9] is: Table 6, Hildebrand parameter of non-solvent.
[10] abbreviates: Table 4, dielectric constant relative to permittivity of free space.
Where [11] appears, read: Table 4, relative sound velocity in paper wetted by the solvent (water = 100), hydrogen bonding capability.

The values below come from patent EP0563281B1, “METHOD FOR PROCESSING ELECTRICALLY CONDUCTIVE POLYANILINES IN LEWIS-BASE SOLVENTS” (MONSANTO COMPANY, priority 1990, dated 1992).

Broadly, the pKa is the negative logarithm of the acid dissociation constant.

Like-named read-outs stand apart in the source and are kept apart here.

In the case of `CN(C)N` [1,1-dimethylhydrazine], the d in data set [1] (Table 7, Hildebrand Parameter) is on record as 19.8 MPa.

Regarding `Cc1ccccn1` [2-picoline], the e in data set [1] (Table 7, Dielectric Constant) is 9.8. The d in data set [1] (Table 7, Hildebrand Parameter) was 20.9 MPa.

As to `O=C1CCCN1` [2-pyrrolidone], in data set [2] (setting [5]), the dd was 19.4 MPa, the dh is on record as 11.3 MPa and the dp is 17.4 MPa. Further, in data set [1] (setting [6]), the d is recorded as 28.4 MPa. In addition, the m in data set [1] (Table 4) was 7.7 10^-30 Cm. In data set [1] (Table 7, Hildebrand Parameter), the d is 28.4 MPa. The r in data set [3] came to 99.8.

Consider `CCCCc1ccc(N)cc1` [4-Butylaniline], for which, in data set [2] (setting [7]), the dh is 6.6 MPa and the dp is recorded as 9.1 MPa. Also, the dd in data set [2] (setting [8]) is recorded as 16.9 MPa. Further, in data set [1] (setting [9]), the d is reported as 20.4 MPa.

For the compound `CN(C)C=O` [Dimethylformamide], in data set [2] (setting [5]), the dd was 17.4 MPa, the dh was 11.3 MPa and the dp is listed as 13.7 MPa. Moreover, in data set [1] (setting [10]), the e is reported as 37.0. Moreover, in data set [1] (Table 4), the m is reported as 11.2 10^-30 Cm. For the same compound, in data set [1] (setting [11]), the gw is 68.0.

Consider `CNNC` [Dimethylhydrazine], for which, in data set [2] (setting [5]), the dd is given as 15.3 MPa, the dh is reported as 11.0 MPa and the dp is on record as 5.9 MPa. Besides, in data set [1] (setting [6]), the d was 19.8 MPa. The r in data set [3] is reported as 5.0.

For the compound `CCNc1ccccc1` [N-Ethylaniline], in data set [2] (setting [7]), the dh is 7.7 MPa and the dp was 10.5 MPa. In data set [2] (setting [8]), the dd is 17.1 MPa. For the same compound, the d in data set [1] (setting [9]) is 21.5 MPa.

In the case of `CN1CCCC1=O` [N-methyl-2-pyrrolidone], the “solvent for undoped polyaniline” value in data set [4] is recorded as “solvent”. Further, in data set [2] (setting [5]), the dd is recorded as 16.5 MPa, the dh is 13.5 MPa and the dp is given as 10.4 MPa. Moreover, in data set [1] (setting [6]), the d was 23.7 MPa. For the same compound, the e in data set [1] (setting [10]) is 32.0.

Regarding `Cc1ccccn1` [Picoline], in data set [2] (setting [5]), the dd was 18.2 MPa, the dh was 6.8 MPa and the dp is reported as 7.8 MPa. In data set [1] (setting [6]), the d is listed as 20.9 MPa. The e in data set [1] (setting [10]) is recorded as 9.8. Moreover, in data set [1] (Table 4), the m is given as 6.3 10^-30 Cm. The compound also showed a r in data set [3] of 4.0.

With `Nc1ccccc1` [aniline], in data set [2] (setting [5]), the dd is 19.4 MPa, the dh is listed as 10.0 MPa and the dp is reported as 5.1 MPa. The d in data set [1] (setting [6]) is recorded as 22.6 MPa. Also, in data set [1] (setting [10]), the e is listed as 6.9. For the same compound, the m in data set [1] (Table 4) was 5.0 10^-30 Cm. Further, in data set [1] (setting [11]), the gw is given as 94.0. In data set [3], this compound yielded a r of 5.3.

Consider `NCc1ccccc1` [benzylamine], for which, in data set [1] (Table 7), the pKa was 9.3.

`CCCCN` [butylamine]: the dd in data set [2] (setting [5]) was 13.6 MPa. In addition, the dh in data set [2] (setting [5]) was 8.0 MPa. The dp in data set [2] (setting [5]) is on record as 8.1 MPa. For the same compound, the d in data set [1] (setting [6]) is 18.6 MPa; in data set [1] (Table 7, Hildebrand Parameter) it was 17.7 MPa. Besides, the e was 5.3 in data set [1] (setting [10]) and 5.3 in data set [1] (Table 7, Dielectric Constant). The m in data set [1] (Table 4) is 4.7 10^-30 Cm. Moreover, the pKa in data set [1] (Table 7) is 10.8.

Regarding `CC(C)NC(C)C` [diisopropylamine], in data set [2] (setting [7]), the dh is listed as 2.0 MPa and the dp is reported as 6.2 MPa. Further, in data set [2] (setting [8]), the dd is 13.8 MPa. Also, the d in data set [1] (setting [9]) is given as 15.2 MPa. Further, the “predicted interaction distance (r)” value in data set [3] (Table 6, second half, Hansen Method) was 11.3.

On to `CCCNCCC` [dipropylamine], for which, in data set [2] (setting [7]), the dh is on record as 5.8 MPa and the dp is recorded as 6.2 MPa. For the same compound, the dd in data set [2] (setting [8]) was 14.0 MPa. In addition, the d in data set [1] (setting [9]) is listed as 16.3 MPa.

As for `NCCN` [ethylenediamine], in data set [2] (setting [5]), the dd is 16.6 MPa, the dh is 17.0 MPa and the dp is 8.8 MPa. The e in data set [1] (setting [10]) is reported as 12.9. In addition, the m in data set [1] (Table 4) is reported as 6.6 10^-30 Cm. Besides, the e in data set [1] (Table 7, Dielectric Constant) was 12.9. The pKa in data set [1] (Table 7) is on record as 10.1.

Consider `CN(C)P(=O)(N(C)C)N(C)C` [hexamethylphosporamide], for which, in data set [2] (setting [5]), the dd is given as 18.3 MPa, the dh is 11.3 MPa and the dp was 8.6 MPa. Also, the d in data set [1] (setting [6]) was 23.2 MPa. For the same compound, in data set [1] (setting [10]), the e was 30.0. Also, in data set [1] (Table 4), the m was 17.6 10^-30 Cm. Further, in data set [1] (Table 7, Dielectric Constant), the e was 30.0. Besides, in data set [1] (Table 7, Hildebrand Parameter), the d is reported as 23.2 MPa. The compound also showed a r in data set [3] of 2.0.

In the case of `c1c[nH]cn1` [imidazole], the pKa in data set [1] (Table 7) is 7.1.

On to `C1COCCN1` [morpholine], for which the dd in data set [2] (setting [5]) is given as 16.0 MPa. Further, in data set [2] (setting [5]), the dh is 10.1 MPa. Also, the dp in data set [2] (setting [5]) is recorded as 11.4 MPa. Moreover, the d in data set [1] (setting [6]) is given as 22.1 MPa; in data set [1] (Table 7, Hildebrand Parameter) it was 22.1 MPa. For the same compound, the e is 7.3 in data set [1] (setting [10]) and 7.3 in data set [1] (Table 7, Dielectric Constant). The m in data set [1] (Table 4) was 5.0 10^-30 Cm. Also, the gw in data set [1] (setting [11]) is recorded as 200.0; in data set [1] (Table 7, Hydrogen Bonding) it was 200.0. In addition, in data set [3], the r came out at 4.0.

Regarding `C1CCNCC1` [piperidine], in data set [1] (Table 7, Dielectric Constant), the e was 5.8. Further, the d in data set [1] (Table 7, Hildebrand Parameter) is on record as 19.3 MPa. For the same compound, the gw in data set [1] (Table 7, Hydrogen Bonding) is on record as 89.0.

As to `CCCN` [propylamine], in data set [2] (setting [5]), the dd was 13.9 MPa, the dh was 7.2 MPa and the dp is recorded as 9.3 MPa. The e in data set [1] (setting [10]) is on record as 5.3. Moreover, the m in data set [1] (Table 4) is given as 4.7 10^-30 Cm. Further, the e in data set [1] (Table 7, Dielectric Constant) is listed as 5.3. In addition, the pKa in data set [1] (Table 7) is listed as 10.8.

With `c1ccncc1` [pyridine], in data set [2] (setting [5]), the dd was 17.6 MPa, the dh is recorded as 7.7 MPa and the dp is 10.1 MPa. Moreover, in data set [1] (setting [10]), the e is recorded as 12.3. Besides, the m in data set [1] (Table 4) is recorded as 7.3 10^-30 Cm. The gw in data set [1] (setting [11]) is 80.0.

`C1CCNC1` [pyrrolidine]: the m in data set [1] (Table 4) is listed as 5.3 10^-30 Cm.

As for `c1ccc2ncccc2c1` [quinoline], in data set [2] (setting [5]), the dd is given as 19.4 MPa, the dh is reported as 7.6 MPa and the dp is 7.0 MPa. Further, the d in data set [1] (setting [6]) is reported as 22.0 MPa. The e in data set [1] (setting [10]) is 9.0. The m in data set [1] (Table 4) was 7.6 10^-30 Cm.

As to `CCCCN(CCCC)CCCC` [tributylamine], in data set [2] (setting [7]), the dh is 4.0 MPa and the dp is on record as 2.8 MPa. Besides, in data set [2] (setting [8]), the dd is 15.1 MPa. For the same compound, the d in data set [1] (setting [9]) is on record as 15.9 MPa. Also, the mp in data set [1] (Table 6) is on record as 2.3 10^-30 Cm.

Regarding `CCN(CC)CC` [triethylamine], in data set [2] (setting [7]), the dh is 1.9 MPa and the dp is 3.7 MPa. Further, the dd in data set [2] (setting [8]) was 14.6 MPa. Besides, in data set [1] (setting [9]), the d is 15.3 MPa. Besides, the mp in data set [1] (Table 6) is given as 2.2 10^-30 Cm.
